Assay in all cases: Kinase panel profiling at 1 µmol/L (MSA or IMAP), percentage inhibition
Common to all, as to assay type: biochemical

For test [1], the target named is panel of 255 wild-type kinases (Homo sapiens, UniProt Q9Y6M4). Conditions: read-out: %-inhibition at 1 µmol/L, CK1γ3.
Test [2] addresses panel of 255 wild-type kinases (Homo sapiens, UniProt P49760). As to conditions: read-out: %-inhibition at 1 µmol/L, CLK2.
The target in test [3] is T1, panel of 255 wild-type kinases (Homo sapiens, UniProt Q08881).
T1 sequence (Q08881 1-620): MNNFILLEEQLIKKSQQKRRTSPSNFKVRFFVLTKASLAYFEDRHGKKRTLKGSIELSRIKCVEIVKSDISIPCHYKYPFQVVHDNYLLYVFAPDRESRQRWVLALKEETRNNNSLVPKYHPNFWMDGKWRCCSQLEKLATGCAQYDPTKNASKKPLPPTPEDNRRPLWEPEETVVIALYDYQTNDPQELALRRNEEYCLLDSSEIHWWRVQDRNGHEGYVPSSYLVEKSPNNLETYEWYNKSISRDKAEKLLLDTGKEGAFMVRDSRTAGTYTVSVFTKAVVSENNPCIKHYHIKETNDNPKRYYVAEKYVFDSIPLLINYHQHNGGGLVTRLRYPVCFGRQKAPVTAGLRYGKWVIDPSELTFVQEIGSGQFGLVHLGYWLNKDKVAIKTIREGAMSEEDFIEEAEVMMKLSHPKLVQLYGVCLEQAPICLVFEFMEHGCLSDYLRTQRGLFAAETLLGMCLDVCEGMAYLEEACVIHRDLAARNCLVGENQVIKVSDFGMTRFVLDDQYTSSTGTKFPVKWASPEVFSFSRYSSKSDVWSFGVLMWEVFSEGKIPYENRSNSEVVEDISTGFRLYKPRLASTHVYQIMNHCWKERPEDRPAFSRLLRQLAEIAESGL
Conditions: read-out: %-inhibition at 1 µmol/L, ITK.

For test [4], the target named is panel of 255 wild-type kinases (Homo sapiens, UniProt P27448). As to conditions: read-out: %-inhibition, MARK3.
Test [5] concerns the target panel of 255 wild-type kinases (Homo sapiens, UniProt P16234). As to conditions: read-out: %-inhibition at 1 µmol/L, PDGFRα.
Test [6] deals with panel of 255 wild-type kinases (Homo sapiens, UniProt Q9HC98). Conditions: read-out: %-inhibition, NEK6.
In test [7] the target is panel of 255 wild-type kinases (Homo sapiens, UniProt P12931). Conditions: read-out: %-inhibition at 1 µmol/L, SRC.
Test [8] addresses T2, panel of 255 wild-type kinases (Homo sapiens, UniProt Q9BXA7).
T2 sequence (Q9BXA7 1-367): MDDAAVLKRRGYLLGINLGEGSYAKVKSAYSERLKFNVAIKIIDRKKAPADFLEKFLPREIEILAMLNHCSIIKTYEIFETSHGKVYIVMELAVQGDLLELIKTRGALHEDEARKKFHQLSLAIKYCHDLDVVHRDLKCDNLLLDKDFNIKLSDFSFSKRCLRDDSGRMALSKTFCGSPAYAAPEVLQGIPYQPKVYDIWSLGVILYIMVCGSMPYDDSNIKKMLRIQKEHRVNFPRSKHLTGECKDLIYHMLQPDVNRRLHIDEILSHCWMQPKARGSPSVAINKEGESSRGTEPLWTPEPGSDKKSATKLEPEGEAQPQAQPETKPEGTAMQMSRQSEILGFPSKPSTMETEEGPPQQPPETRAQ
Conditions: read-out: %-inhibition at 1 µmol/L, TSSK1.

For test [9], the target named is panel of 255 wild-type kinases (Homo sapiens, UniProt P53355). Conditions: read-out: %-inhibition at 1 µmol/L, DAPK1.
The target in test [10] is panel of 255 wild-type kinases (Homo sapiens, UniProt P28482). As to conditions: read-out: %-inhibition at 1 µmol/L, Erk2.
Test [11] has as its target panel of 255 wild-type kinases (Homo sapiens, UniProt Q15759). As to conditions: read-out: %-inhibition, p38β.
Test [12] deals with panel of 255 wild-type kinases (Homo sapiens, UniProt O94804). Conditions: read-out: %-inhibition at 1 µmol/L, LOK.
Test [13] has as its target panel of 255 wild-type kinases (Homo sapiens, UniProt O75582). Conditions: read-out: %-inhibition, MSK1.
For test [14], the target named is panel of 255 wild-type kinases (Homo sapiens, UniProt P27361). As to conditions: read-out: %-inhibition at 1 µmol/L, Erk1.
The target in test [15] is panel of 255 wild-type kinases (Homo sapiens, UniProt Q13153). As to conditions: read-out: %-inhibition, PAK1.
The target of test [16] is panel of 255 wild-type kinases (Homo sapiens, UniProt P24723). Conditions: read-out: %-inhibition at 1 µmol/L, PKCη.
The target of test [17] is panel of 255 wild-type kinases (Homo sapiens, UniProt Q96RG2). As to conditions: read-out: %-inhibition, PASK.
Test [18] deals with panel of 255 wild-type kinases.
For test [19], the target named is panel of 255 wild-type kinases (Homo sapiens, UniProt P16591). As to conditions: read-out: %-inhibition at 1 µmol/L, FER.
Where [20] appears, read: kinase CK1γ3, 1 µmol/L single concentration.
The mark [21] stands for this setting: kinase CLK2, 1 µmol/L single concentration.
Setting [22] is: kinase ITK, 1 µmol/L single concentration.
The mark [23] stands for this setting: MARK3, 1 µmol/L single concentration.
Where [24] appears, read: kinase PDGFRα, 1 µmol/L single concentration.
[25] abbreviates: NEK6, 1 µmol/L single concentration.
The mark [26] stands for this setting: kinase SRC, 1 µmol/L single concentration.
The mark [27] stands for this setting: kinase TSSK1, 1 µmol/L single concentration.
The mark [28] stands for this setting: kinase DAPK1, 1 µmol/L single concentration.
The mark [29] stands for this setting: kinase Erk2, 1 µmol/L single concentration.
The mark [30] stands for this setting: p38β, 1 µmol/L single concentration.
[31] abbreviates: kinase LOK, 1 µmol/L single concentration.
Setting [32] is: MSK1, 1 µmol/L single concentration.
Where [33] appears, read: kinase Erk1, 1 µmol/L single concentration.
Where [34] appears, read: PAK1, 1 µmol/L single concentration.
[35] abbreviates: kinase PKCη, 1 µmol/L single concentration.
[36] abbreviates: PASK, 1 µmol/L single concentration.
[37] abbreviates: kinase FYN [isoform b], 1 µmol/L single concentration.
The mark [38] stands for this setting: kinase LYNb, 1 µmol/L single concentration.
The mark [39] stands for this setting: kinase PKCβ2, 1 µmol/L single concentration.
The mark [40] stands for this setting: kinase SRM, 1 µmol/L single concentration.
Setting [41] is: kinase FER, 1 µmol/L single concentration.

The values that follow come from publication PMC9516332 (Frontiers in Oncology, 2022).

Where two headings read alike, the source gives them in different places.

For the compound `Cn1cnc2c(F)c(Nc3ccc(Br)cc3F)c(C(=O)NOCCO)cc21` [binimetinib], the inhibition at 1 µM was 2.67% in [1] (setting [20]); -2.25% in test [2] (setting [21]); 1.61% in test [3] (setting [22]); 7% in test [4] (setting [23]); 2% in test [5] (setting [24]); -2.65% in [6] (setting [25]). Besides, the inhibition at 1 µM is -0.525% in [7] (setting [26]); 0.849% in test [8] (setting [27]); 1.69% in [9] (setting [28]); 0.0301% in test [10] (setting [29]); 0.0465% in test [11] (setting [30]); 3.42% in [12] (setting [31]). The inhibition at 1 µM in test [13] (setting [32]) was 10%; in test [14] (setting [33]), -4.32%; in test [15] (setting [34]), 5%; in [16] (setting [35]) it was 6%; in [17] (setting [36]), -2.45%; in [19] (setting [41]), 4.71%. Besides, the “%-inhibition at 1 µmol/L, FYN [isoform b]” value (shortened to “%-inhibition … [isoform b]”) in test [18] (setting [37]) is 4%. Also, the “%-inhibition at 1 µmol/L, LYNb” value in test [18] (setting [38]) is 4.22%. The “%-inhibition at 1 µmol/L, PKCβ2” value in test [18] (setting [39]) is on record as -1.88%. The “%-inhibition at 1 µmol/L, SRM” value in [18] (setting [40]) is recorded as -1.11%.

As for `CNC(=O)c1ccc(-c2cnc3ncc(Cc4ccc5ncccc5c4)n3n2)cc1F` [capmatinib], the inhibition at 1 µM in test [1] is -1.65%; in test [2], 7%; in test [3], 5%; in [4] it was -0.936%; in test [5] it was 18%; in test [6], -4%. The inhibition at 1 µM in test [7] is -1.77%; in test [8] it was 3%; in [9] it was -2.82%; in [10], 1.14%; in test [11] it was -2.57%; in test [12], 0.859%. Also, the inhibition at 1 µM in test [13] is 4%; in test [14] it was 2.84%; in [15], 4.66%; in test [16], -8.53%; in test [17] it was -5%; in [19], 2.2%. In addition, the “%-inhibition … [isoform b]” value in test [18] is -1.2%. For the same compound, the “%-inhibition at 1 µmol/L, LYNb” value in test [18] came to 0.305%. For the same compound, the “%-inhibition at 1 µmol/L, PKCβ2” value in test [18] is recorded as -2%. Moreover, in [18], the “%-inhibition at 1 µmol/L, SRM” value is listed as -0.916%.

Consider `COc1cc2ncnc(Nc3ccc(F)c(Cl)c3)c2cc1NC(=O)/C=C/CN1CCCCC1` [dacomitinib], for which the inhibition at 1 µM in test [1] (setting [20]) is -23%; in [2] (setting [21]), -0.6%; in test [3] (setting [22]), 24%; in test [4] (setting [23]), 10%; in test [5] (setting [24]), 69%; in test [6] (setting [25]), -4.7%. The inhibition at 1 µM in test [7] (setting [26]) is 44%; in test [8] (setting [27]) it was -2.48%; in test [9] (setting [28]) it was -7%; in [10] (setting [29]), -1.48%; in test [11] (setting [30]), 8.44%; in [12] (setting [31]) it was 86%. Moreover, the inhibition at 1 µM is 1.13% in test [13] (setting [32]); 2.66% in test [14] (setting [33]); 0.38% in [15] (setting [34]); 11% in test [16] (setting [35]); 5.35% in test [17] (setting [36]); 6.35% in [19] (setting [41]). Moreover, the “%-inhibition … [isoform b]” value in test [18] (setting [37]) was 37%. Besides, the “%-inhibition at 1 µmol/L, LYNb” value in [18] (setting [38]) was found to be 74%. Also, in test [18] (setting [39]), the “%-inhibition at 1 µmol/L, PKCβ2” value is given as 5.44%. The “%-inhibition at 1 µmol/L, SRM” value in [18] (setting [40]) is 1.79%.

As to `C[C@H](Nc1ncnc2nc[nH]c12)c1cc2cccc(Cl)c2c(=O)n1-c1ccccc1` [duvelisib], the inhibition at 1 µM in [1] (setting [20]) is -0.689%; in [2] (setting [21]), 3.58%; in test [3] (setting [22]) it was 9%; in test [4] (setting [23]), 12%; in test [5] (setting [24]) it was 2%; in test [6] (setting [25]), -1%. The inhibition at 1 µM in test [7] (setting [26]) was -1.74%; in test [8] (setting [27]) it was -4%; in [9] (setting [28]) it was -3.23%; in test [10] (setting [29]) it was 0.0602%; in test [11] (setting [30]), 0.677%; in test [12] (setting [31]), 0.582%. Besides, the inhibition at 1 µM was -8% in [13] (setting [32]); 2.77% in test [14] (setting [33]); -0.68% in test [15] (setting [34]); 0.743% in test [16] (setting [35]); -0.608% in test [17] (setting [36]); -1.81% in [19] (setting [41]). Further, in test [18] (1 µmol/L inhibitor), the “inhibition of profiled kinases in biochemical assays” value is listed as “did not inhibit FLT3 or any of the other profiled tyrosine or serine/threonine kinases”. The “%-inhibition … [isoform b]” value in test [18] (setting [37]) stood at 0.6%. Also, the “%-inhibition at 1 µmol/L, LYNb” value in test [18] (setting [38]) amounted to 3%. The “%-inhibition at 1 µmol/L, PKCβ2” value in test [18] (setting [39]) is 1.61%. Also, the “%-inhibition at 1 µmol/L, SRM” value in test [18] (setting [40]) turned out to be 4%.
